Source: patent US20250032465A1, “METHODS OF TREATING CNS DISORDERS” (HANGZHOU HIGHLIGHTLL PHARMACEUTICAL CO., LTD, priority 2021, published 2025)
Like-named read-outs stand apart in the source and are kept apart here.

Legend:
JAK2 = biological target: T1, JAK2 (Homo sapiens, UniProt O60674); assay: JAK2 biochemical test (33P-ATP filter binding, Reaction Biology); conditions: read-out: Inhibition of JAK2 (IC50)
T1 construct: purchased Reaction Biology Corp, Malvern, PA (contract testing)
Procedure: (§1) The tests were conducted by Reaction Biology Corp, Malvern, PA (Anastassiadis et al. Nat Biotechnol. 2011; 29(11):1039-45). The step is briefly described as follows, using the basic reaction buffer: 20 mM Hepes (pH 7.5), 10 mM MgCl2, 1 mM EGTA, 0.02% Brij35, 0.02 mg/ml BSA, 0.1 mM Na3VO4, 2 mM DTT and 1% DMSO. The required cofactor was added to each kinase reaction respectively. Each reaction was performed according to the following reaction steps: 1) Preparing the designated substrate in the newly prepared basic reaction buffer; 2) Transferring the required cofactor to the above matrix solution; 3) Transferring the designated kinase to the substrate solution and mixing well slightly; 4) Transferring a compound of Formula (I) in DMSO to the kinase reaction mixture with Acoustic technique (Echo550; nanoliter range), culturing for 20 minutes at room temperature; 5) Introducing ^33P-ATP (specific activity: 10 μCi/μl) to the reaction mixture to trigger a reaction; 6) Culturing at room temperature and conducting a kinase reaction for 2 hours; 7) Plotting the reaction on P81 ion exchange paper; and 8) Testing the kinase activity with a filter binding assay. The results shown in Table 1 indicate that compounds of Formulae (I)-(III) are potent and selective TYK2/JAK1 inhibitors.

JAK3 = biological target: T2, JAK3 (Homo sapiens, UniProt P52333); assay: JAK3 biochemical test (33P-ATP filter binding, Reaction Biology); conditions: read-out: Inhibition of JAK3 (IC50)
T2 construct: purchased Reaction Biology Corp, Malvern, PA (contract testing)
T2 sequence (P52333 1-1124): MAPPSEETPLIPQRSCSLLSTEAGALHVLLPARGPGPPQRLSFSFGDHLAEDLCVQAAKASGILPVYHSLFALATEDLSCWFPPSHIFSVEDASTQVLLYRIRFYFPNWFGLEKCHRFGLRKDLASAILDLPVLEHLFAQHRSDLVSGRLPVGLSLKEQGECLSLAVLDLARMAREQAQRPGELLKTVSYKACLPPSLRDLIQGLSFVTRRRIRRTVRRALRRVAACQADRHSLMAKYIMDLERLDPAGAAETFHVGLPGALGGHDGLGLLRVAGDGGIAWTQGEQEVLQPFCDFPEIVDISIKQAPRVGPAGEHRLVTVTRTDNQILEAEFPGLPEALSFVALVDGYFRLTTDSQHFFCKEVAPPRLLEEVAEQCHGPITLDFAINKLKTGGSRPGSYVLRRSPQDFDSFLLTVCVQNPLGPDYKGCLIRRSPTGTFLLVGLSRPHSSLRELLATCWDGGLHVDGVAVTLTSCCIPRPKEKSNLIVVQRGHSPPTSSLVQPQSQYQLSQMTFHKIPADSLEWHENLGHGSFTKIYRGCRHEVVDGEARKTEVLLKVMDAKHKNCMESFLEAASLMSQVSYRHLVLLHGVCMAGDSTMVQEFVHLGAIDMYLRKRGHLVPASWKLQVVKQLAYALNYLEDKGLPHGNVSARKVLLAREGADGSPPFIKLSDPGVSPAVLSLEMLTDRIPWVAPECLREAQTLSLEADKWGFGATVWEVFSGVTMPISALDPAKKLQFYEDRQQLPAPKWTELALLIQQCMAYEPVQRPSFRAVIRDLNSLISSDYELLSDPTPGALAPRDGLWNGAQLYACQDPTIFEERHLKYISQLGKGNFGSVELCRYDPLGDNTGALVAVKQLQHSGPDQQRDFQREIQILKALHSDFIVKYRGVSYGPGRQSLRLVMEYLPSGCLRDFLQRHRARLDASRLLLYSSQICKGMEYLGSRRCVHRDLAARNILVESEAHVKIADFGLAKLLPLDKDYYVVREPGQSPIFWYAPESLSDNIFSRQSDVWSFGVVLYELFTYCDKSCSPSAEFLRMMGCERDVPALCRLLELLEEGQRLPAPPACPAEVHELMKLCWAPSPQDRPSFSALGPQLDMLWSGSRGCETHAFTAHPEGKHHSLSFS
Procedure: as §1

TYK2 = biological target: T3, TYK2 (Homo sapiens, UniProt P29597); assay: TYK2 cellular ELISA assay using NK92 cells (IL-12 and IL-18 stimulated IFNγ excretion); type: cell-based; conditions: IL-12 2 ng/ml, IL-18 5 ng/ml, 24 hours
T3 construct: purchased Reaction Biology Corp, Malvern, PA (contract testing)
T3 sequence (P29597 whole entry): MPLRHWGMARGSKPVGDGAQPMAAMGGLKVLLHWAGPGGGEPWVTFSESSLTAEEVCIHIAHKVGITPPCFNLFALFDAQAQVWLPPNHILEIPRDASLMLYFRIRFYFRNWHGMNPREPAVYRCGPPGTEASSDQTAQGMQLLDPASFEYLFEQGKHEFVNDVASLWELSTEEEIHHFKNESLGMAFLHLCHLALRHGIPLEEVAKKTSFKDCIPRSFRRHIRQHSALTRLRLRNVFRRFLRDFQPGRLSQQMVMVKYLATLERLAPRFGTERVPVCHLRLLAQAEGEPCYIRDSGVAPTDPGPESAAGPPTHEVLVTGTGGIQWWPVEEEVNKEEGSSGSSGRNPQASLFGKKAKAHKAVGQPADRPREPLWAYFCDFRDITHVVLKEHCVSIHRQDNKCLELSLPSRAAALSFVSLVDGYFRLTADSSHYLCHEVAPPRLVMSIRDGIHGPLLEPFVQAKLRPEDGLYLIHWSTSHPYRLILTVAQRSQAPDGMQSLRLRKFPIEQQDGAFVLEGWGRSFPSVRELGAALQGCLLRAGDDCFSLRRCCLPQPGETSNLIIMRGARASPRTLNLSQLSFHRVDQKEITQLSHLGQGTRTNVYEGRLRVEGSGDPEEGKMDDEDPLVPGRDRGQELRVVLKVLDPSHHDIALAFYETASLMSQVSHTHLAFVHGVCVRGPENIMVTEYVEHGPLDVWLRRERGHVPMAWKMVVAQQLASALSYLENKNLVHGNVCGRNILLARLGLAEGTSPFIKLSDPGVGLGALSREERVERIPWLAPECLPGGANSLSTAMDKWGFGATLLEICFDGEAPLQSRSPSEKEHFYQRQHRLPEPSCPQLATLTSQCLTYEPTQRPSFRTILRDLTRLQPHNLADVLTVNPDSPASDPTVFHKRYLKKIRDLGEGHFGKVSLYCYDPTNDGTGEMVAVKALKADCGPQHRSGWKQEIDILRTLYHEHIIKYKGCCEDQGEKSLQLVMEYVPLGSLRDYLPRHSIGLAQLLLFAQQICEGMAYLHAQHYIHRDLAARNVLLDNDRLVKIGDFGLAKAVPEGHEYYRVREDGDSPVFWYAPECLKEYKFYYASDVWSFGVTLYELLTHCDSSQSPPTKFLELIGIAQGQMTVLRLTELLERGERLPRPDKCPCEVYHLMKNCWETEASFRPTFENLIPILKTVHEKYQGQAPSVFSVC
Procedure: This testing was performed to test cellular TYK2 activity using IL-12 and IL-18 stimulated IFNγ excretion assay in NK92 cells. The testing was performed according to the following procedure: 1) Replace NK92 cell media containing IL-2 with media not containing IL-2, maintain overnight; 2) Plate NK92 cells to 96-well plate at density of ˜150,000 cell/well; 3) Add different concentrations of test article to wells, maintain in incubator at 37° C. and 5% CO2 for 1 hour; 4) Add IL-12 (final concentration: 2 ng/ml) and IL-18 (final concentration: 5 ng/ml) to stimulate for 24 hours in the above incubator; 5) After 24 hours, centrifuge at 2000 rpm for 5 min, take the supernatant and analyze according to instructions of the ELISA kit. In this assay, compounds of Formulae (II) and (III) had IC50<100 nM.

JAK1 = biological target: T4, JAK1 (Homo sapiens, UniProt P23458); assay: JAK1 cellular ELISA assay using PBMC cells (IL-6 stimulated STAT3 phosphorylation); type: cell-based; conditions: IL-6 100 ng/ml, 25 min
T4 construct: purchased Reaction Biology Corp, Malvern, PA (contract testing)
T4 sequence (P23458 whole entry): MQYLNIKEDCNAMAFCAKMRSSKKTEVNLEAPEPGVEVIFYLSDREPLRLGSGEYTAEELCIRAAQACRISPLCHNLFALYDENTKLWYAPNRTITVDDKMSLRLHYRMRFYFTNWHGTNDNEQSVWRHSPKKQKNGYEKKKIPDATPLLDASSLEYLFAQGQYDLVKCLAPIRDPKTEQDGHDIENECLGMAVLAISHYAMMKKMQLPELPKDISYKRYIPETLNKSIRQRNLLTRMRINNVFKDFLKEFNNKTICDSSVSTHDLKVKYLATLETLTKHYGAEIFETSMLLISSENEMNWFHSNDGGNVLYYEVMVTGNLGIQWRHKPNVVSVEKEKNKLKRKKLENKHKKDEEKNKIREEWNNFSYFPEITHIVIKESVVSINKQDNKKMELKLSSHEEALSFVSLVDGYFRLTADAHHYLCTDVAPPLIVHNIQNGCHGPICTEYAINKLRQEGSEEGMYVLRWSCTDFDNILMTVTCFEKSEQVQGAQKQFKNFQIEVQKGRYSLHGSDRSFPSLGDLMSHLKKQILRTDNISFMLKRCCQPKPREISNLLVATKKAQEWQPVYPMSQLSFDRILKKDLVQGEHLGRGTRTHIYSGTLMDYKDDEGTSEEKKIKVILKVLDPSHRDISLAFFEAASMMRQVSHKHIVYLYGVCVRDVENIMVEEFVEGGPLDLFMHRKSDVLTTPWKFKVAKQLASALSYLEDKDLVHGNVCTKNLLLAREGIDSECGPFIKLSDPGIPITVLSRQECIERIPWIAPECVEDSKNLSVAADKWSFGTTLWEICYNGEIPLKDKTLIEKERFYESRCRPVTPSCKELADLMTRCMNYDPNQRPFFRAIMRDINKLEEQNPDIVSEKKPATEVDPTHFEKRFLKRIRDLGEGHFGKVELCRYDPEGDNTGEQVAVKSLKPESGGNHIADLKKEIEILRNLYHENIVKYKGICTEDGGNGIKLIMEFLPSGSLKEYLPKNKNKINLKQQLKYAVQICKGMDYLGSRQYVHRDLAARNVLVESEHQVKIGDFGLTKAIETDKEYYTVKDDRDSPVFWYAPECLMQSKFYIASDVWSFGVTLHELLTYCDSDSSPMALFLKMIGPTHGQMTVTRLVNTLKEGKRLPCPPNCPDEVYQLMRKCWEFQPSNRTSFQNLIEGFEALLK
Procedure: This testing was performed to test cellular JAK1 activity using the IL-6 stimulated STAT3 phosphorylation assay in PBMC cells. The testing was performed according to the following procedure: 1) Plate PBMC cells to 96-well plate at density of ˜300,000 cell/well; 2) Add different concentrations of test article to wells, maintain in incubator at 37° C. and 5% CO2 for 1 hour; 3) Add IL-6 (final concentration: 100 ng/ml) to stimulate for 25 min in the above incubator; 4) After stimulation, transfer the suspension to 1.5 mL tube, centrifuge at 200 g for 5 min, collect cells, add 100 μL 1× lysate, lyse on ice for 1 hour; 5) Centrifuge at 4° C. and 12000 rpm for 10 min, take the supernatant and analyze according to instructions of the ELISA kit. In this assay, compounds of Formulae (II) and (III) had IC50<300 nM.

[1] = Brain penetration in mice; type: in vivo, C57BL/6 mice; conditions: male, mouse, 30 mg/kg oral gavage, 4-hour post-dosing
Procedure: This testing was performed to test the ability of compounds to penetrate the blood-brain-barrier in mice. The testing was performed according to the following procedure: 1) for each compound, take 3 male C57BL/6 mice with body weight of 17-18 g, formulate compound using 0.5% HPMC/water suspension at concentration of 3 mg/ml; 2) After fasting overnight, administer compound at 30 mg/kg by oral gavage; 3) Take plasma samples at 1, 2, 4 hours post-dosing; 4) At 4-hour post-dosing, also take brain tissues and cerebrospinal fluid (CSF) fluid; 5) Analyze compound concentration in plasma, brain tissue, and CSF fluid using LC-MS/MS method.

T1 sequence (O60674 whole entry): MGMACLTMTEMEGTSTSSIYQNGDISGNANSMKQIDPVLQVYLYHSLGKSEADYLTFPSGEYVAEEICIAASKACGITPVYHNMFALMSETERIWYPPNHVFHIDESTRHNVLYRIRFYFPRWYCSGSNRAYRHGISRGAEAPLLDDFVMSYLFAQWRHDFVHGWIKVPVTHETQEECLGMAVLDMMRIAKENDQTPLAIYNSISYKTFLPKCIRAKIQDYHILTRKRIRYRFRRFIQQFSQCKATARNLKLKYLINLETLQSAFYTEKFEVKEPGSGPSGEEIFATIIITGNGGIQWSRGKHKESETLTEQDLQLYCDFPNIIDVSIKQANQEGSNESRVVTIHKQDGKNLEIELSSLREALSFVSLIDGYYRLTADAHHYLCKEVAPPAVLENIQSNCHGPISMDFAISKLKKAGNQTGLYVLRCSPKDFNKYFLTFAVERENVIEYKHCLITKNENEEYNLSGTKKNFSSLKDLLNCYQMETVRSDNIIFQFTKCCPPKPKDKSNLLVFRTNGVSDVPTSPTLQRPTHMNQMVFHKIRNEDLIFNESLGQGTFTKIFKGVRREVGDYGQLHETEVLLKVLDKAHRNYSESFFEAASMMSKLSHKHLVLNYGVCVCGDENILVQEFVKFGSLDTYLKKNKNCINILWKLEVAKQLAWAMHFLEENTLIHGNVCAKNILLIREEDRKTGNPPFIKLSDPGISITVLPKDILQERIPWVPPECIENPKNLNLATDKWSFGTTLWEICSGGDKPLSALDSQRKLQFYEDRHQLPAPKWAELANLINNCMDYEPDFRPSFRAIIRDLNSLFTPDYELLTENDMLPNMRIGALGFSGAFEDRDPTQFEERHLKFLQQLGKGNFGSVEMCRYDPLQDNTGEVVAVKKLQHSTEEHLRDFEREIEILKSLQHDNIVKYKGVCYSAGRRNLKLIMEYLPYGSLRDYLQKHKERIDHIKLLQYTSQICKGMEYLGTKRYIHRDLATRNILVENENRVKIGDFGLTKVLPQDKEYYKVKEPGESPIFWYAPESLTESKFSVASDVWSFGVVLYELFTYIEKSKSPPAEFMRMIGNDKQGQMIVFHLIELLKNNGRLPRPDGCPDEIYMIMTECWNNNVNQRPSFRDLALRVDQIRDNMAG

SMILES: Cc1nc2cnc3ccoc3c2n1[C@H]1CC[C@H](CC#N)OC1 [Formula (II)]
- IC50 (JAK2): > 100 nM
- IC50 (JAK3): > 100 nM
- IC50 (TYK2): < 100 nM
- IC50 (JAK1): < 300 nM
- Kp at 4 h ([1]; C57BL/6, CSF/plasma, read-out: CSF (ng/ml)/ Plasma (ng/ml)): > 0.15
- Kp at 4 h ([1]; C57BL/6, brain/plasma, read-out: Brain (ng/ml)/ Plasma (ng/ml)): > 0.3
